Measurements: EP0728738A1, “Tetralinyl- and indanyl-ethylamides having melatonergic activity” (BRISTOL-MYERS SQUIBB COMPANY, priority 1995, dated 1996)
pIC50: −log10 of the molar value.

What follows are compounds tested against T1, Human Melatonin Receptor ML1A (Homo sapiens, UniProt P48039) (assay: Melatonergic binding at the human melatonin receptor ML1A (2-[125I]-iodomelatonin displacement, membranes of transfected COS-1 cells)). Details: human ML1A in COS-1 cell membranes, 2-[125I]-iodomelatonin 100 pM, 37°C for 1 hour; read-out: Binding Affinity IC50.
T1 construct: expressed in transfected cells; host or cells: COS-1 cells, pcDNAI vector, DEAE-dextran transfection
T1 sequence (P48039 whole entry): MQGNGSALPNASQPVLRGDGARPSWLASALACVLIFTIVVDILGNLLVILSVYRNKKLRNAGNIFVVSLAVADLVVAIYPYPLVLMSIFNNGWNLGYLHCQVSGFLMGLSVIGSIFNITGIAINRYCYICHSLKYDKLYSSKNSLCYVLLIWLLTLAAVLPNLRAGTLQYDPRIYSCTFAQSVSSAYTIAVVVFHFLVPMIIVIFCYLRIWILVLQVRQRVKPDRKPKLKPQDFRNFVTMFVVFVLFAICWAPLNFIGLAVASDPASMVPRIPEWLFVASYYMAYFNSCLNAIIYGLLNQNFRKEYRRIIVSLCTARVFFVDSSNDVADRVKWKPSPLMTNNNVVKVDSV
Method: Example 47: Measurement of Melatonergic Binding at the Human Melatonin Receptor ML1A
• 1. Reagents: • (a) 50mM Tris buffer containing 12.5 mM MgCl2, and 2mM EDTA, pH 7.4 at 37 °C with concentrated HCl. • (b) Wash buffer: 20mM Tris base containing 2mM MgCl2. pH 7.4 at room temperature. • (c) 10^-4M 6-Chloromelatonin (10-^5M final concentration). • (d) 2-[^125I]-iodomelatonin, 100 pM final concentration Source: NEN • 2. Membrane preparation: The cDNA (human ML1A) in pcDNAI was introduced into COS-1 cells by the DEAE-dextran method. Three days after transfection, the media was removed, the plates washed with phosphate buffered saline, the cells removed using Hank's balanced salt solution and pelleted. For preparing membrane homogenates, pellets are thawed on ice, and resuspended in TME buffer, 50 mM Tris base, 12.5 mM MgCl2, 1 mM EDTA (pH7.4 at 37°C with concentrated HCL), supplemented with 10 µg/ml aprotinin and leupeptin, and 100 µM phenylmethlysulfonylfluoride. The cells were then homogenized using a dounce homogenizer, and centrifuged. The resulting pellet was resuspended with a dounce homogenizer in TME and frozen. On the day of assay, the small aliquot was thawed on ice and resuspended in TME buffer. • 3. Incubation: 37 °C for 1 hour. Reaction is terminated by filtration. • 4. […] Reference: Reppert, S. M., Weaver, D. R., and Ebisawa, R. (1994), Neuron, 13, 1177-1185.
A pIC50 of 6.30 to 7.00 was found for CCCC(=O)NCCC1CCc2ccc(OC)cc21 (single isomer, unassigned; (+)) [Example 37] in this work. A pIC50 of no more than 6.30 was found for COCC(=O)NCCC1CCCc2ccc(OC)cc21 (single isomer, unassigned; (+)) [Example 39, (+)-N-[2-(1,2,3,4-tetrahydro-7-methoxynaphthalen-1-yl)ethyl] methoxyacetamide] in this work. A pIC50 greater than 7.00 was found for CCCC(=O)NCCC1CCc2ccc(OC)cc21 (single isomer, unassigned; (-)) [Example 36] in this work. A pIC50 greater than 7.00 was found for COCC(=O)NCCC1CCCc2ccc(OC)cc21 (single isomer, unassigned; (-)) [Example 38, (-)-N-[2-(1,2,3,4-tetrahydro-7-methoxynaphthalen-1-yl)ethyl] methoxyacetamide] in this work. A pIC50 greater than 7.00 was found for CCCCCCCCCCCCOc1ccc2c(c1)C(CCNC(=O)CCC)CC2 (centres unmarked) [Example 43, N-[2-(2,3-Dihydro-6-dodecyloxy-1H-inden-1-yl)ethyl]butanamide] in this work. A pIC50 greater than 7.00 was found for CCCC(=O)NCCC1CCc2ccc(OC(F)F)cc21 (centres unmarked) [Example 45, N-[2-(6-Difluoromethoxy-2,3-dihydro-1H-inden-1-yl)ethyl]butanamide] in this work.

What follows are compounds tested against ML1 Receptor (assay: Melatonergic binding at the ML1 receptor in rabbit tissue (2-[125I]-iodomelatonin displacement, parietal cortex homogenate)). Details: 2-[125I]-iodomelatonin 44pM, 37°C for 1 hour, read-out: Binding Affinity IC50.
Method: Example 46: Measurement of Melatonergic Binding at the ML1 Receptor in Rabbit Tissue
• 1. Reagents • (a) 50mM Tris buffer containing 12.5 mM MgCl2, and 2mM EDTA (pH 7.4 at 37 °C). • (b) Wash buffer: 20mM Tris base containing 2mM MgCl2 (pH 7.4 at room temperature). • (c) 6-Chloromelatonin (10-^5M final concentration). • (d) 2-[^125I]-iodomelatoin, 44pM final concentration Source: NEN • 2. Tissue preparation. Male New Zealand white rabbits (Hazelton Research) are decapitated, the brains are rapidly removed and chilled. The parietal cortex is crudely dissected and frozen on dry ice with tissue stored at - 80 °C until assayed. Tissue is weighed and thawed in 20 mls ice cold Tris buffer (a) and homogenized by treatment with a polytron for 10 seconds at setting 17. Ice cold Tris (a) is added to a volume of 40 mls. The homogenate is centrifuged. The resulting supernatant is decanted and discarded. The pellet is rehomogenized in an additional 20 mls of Tris, diluted and centrifuged. The supernatant is decanted and discarded. The resulting pellet is homogenized in 20 volumes of Tris per gram of original tissue (a 1:20 homogenate), chilled, and held on ice until assayed. • 3. Incubation: 37 °C for 1 hour. Reaction is terminated by filtration. • 4. […] References: Stankov, B., Cozzi, B., Lucini, V., Fumagalli, P., Scaglione, F. and F. Fraschini. Characterization and mapping of melatonin receptors in the brain of three mammalian species: Rabbit, horse, and sheep. Neuroendocrinology 53: 214-221, 1991.
A pIC50 greater than 7.00 was found for COCC(=O)NCCC1CCCc2ccc(OC)cc21 (single isomer, unassigned; (+)) [Example 39, (+)-N-[2-(1,2,3,4-tetrahydro-7-methoxynaphthalen-1-yl)ethyl] methoxyacetamide] in this work. A pIC50 greater than 7.00 was found for CCCC(=O)NCCC1CCc2ccc(OC)cc21 (single isomer, unassigned; (-)) [Example 36] in this work. A pIC50 greater than 7.00 was found for COCC(=O)NCCC1CCCc2ccc(OC)cc21 (single isomer, unassigned; (-)) [Example 38, (-)-N-[2-(1,2,3,4-tetrahydro-7-methoxynaphthalen-1-yl)ethyl] methoxyacetamide] in this work. A pIC50 greater than 7.00 was found for CCCC(=O)NCCC1CCCc2ccc(OC)cc21 (centres unmarked) [Example 1, N-[2-(7-Methoxy-1,2,3,4-tetrahydro-1-naphthalenyl)ethyl]butanamide] in this work. A pIC50 greater than 7.00 was found for COc1ccc2c(c1)C(CCNC(=O)C1CC1)CCC2 (centres unmarked) [Example 3, N-[2-(7-Methoxy-1,2,3,4-tetrahydro-1-naphthalenyl)ethyl]cyclopropane carboxamide] in this work. A pIC50 greater than 7.00 was found for COc1ccc2c(c1)C(CCNC(C)=O)CCC2 (centres unmarked) [Example 4, N-[2-(7-Methoxy-1,2,3,4-tetrahydro-1-naphthalenyl)ethyl]acetamide] in this work. A pIC50 greater than 7.00 was found for COCC(=O)NCCC1CCCc2ccc(OC)cc21 (centres unmarked) [Example 16, N-[2-(7-Methoxy-1,2,3,4-tetrahydro-1-naphthalenyl)ethyl]-2-methoxyacetamide] in this work. A pIC50 greater than 7.00 was found for CCCC(=O)NCCC1CCc2ccc(OC)cc21 (centres unmarked) [Example 22, N-[2-(2,3-Dihydro-6-methoxy-1H-inden-1-yl)-ethyl]butanamide] in this work. A pIC50 greater than 7.00 was found for COc1ccc2c(c1)C(CCNC(=O)C1CC1)CC2 (centres unmarked) [Example 24, N-[2-(2,3-Dihydro-6-methoxy-1H-inden-1-yl)-ethyl]cyclopropane carboxamide] in this work. A pIC50 greater than 7.00 was found for COc1ccc2c(c1)C(CCNC(C)=O)CC2 (centres unmarked) [Example 25, N-[2-(2,3-Dihydro-6-methoxy-1H-inden-1-yl)-ethyl]acetamide] in this work. A pIC50 greater than 7.00 was found for CCCC(=O)NCCC1CCc2ccc(F)cc21 (centres unmarked) [Example 31, N-[2-(6-Fluoro-2,3-dihydro-1H-inden-1-yl)ethyl]butanamide] in this work. A pIC50 of 6.30 to 7.00 was found for COc1ccc2c(c1)C(CCNC(C)=O)CC2(C)C (centres unmarked) [Example 32, N-[2-(2,3-Dihydro-6-methoxy-3,3-dimethyl-1H-inden-1-yl)ethyl]acetamide] in this work. A pIC50 of 6.30 to 7.00 was found for CCCC(=O)NCCC1CC(C)(C)c2ccc(OC)cc21 (centres unmarked) [Example 33, N-[2-(2,3-Dihydro-6-methoxy-3,3-dimethyl-1H-inden-1-yl)ethyl]butanamide] in this work. A pIC50 greater than 7.00 was found for CCCC(=O)NCCC1CCc2ccc(C(=O)OC)cc21 (centres unmarked) [Example 42, N-[2-(2,3-Dihydro-6-methoxycarbonyl-1H-inden-1-yl)ethyl]butanamide] in this work.
